From patent US20080227863A1, “Organic Compounds” (Novartis AG, priority 2005, published 2008)

- melting point: 154 to 155 °C
SMILES: N#CC(C#N)(COc1ccccc1Cl)NC(=O)c1ccc(OC(F)(F)F)cc1 [Compound 1.3, N-[2-(2-Chloro-phenoxy)-1,1-dicyano-ethyl]-4-trifluoromethoxy-benzamide]
